According to ChEMBL document CHEMBL1135281, “Solid-phase synthesis and pharmacological evaluation of analogues of PhTX-12-A potent and selective nicotinic acetylcholine receptor antagonist” (Bioorg Med Chem Lett, 2002):

What was measured:
[1] = biological target: T1, Acetylcholine receptor subunit delta (Homo sapiens, UniProt Q07001); assay: Compound was evaluated for inhibitory activity against human embryonic muscle type Nicotinic acetylcholine receptor specifically delta-subunit expressed in TE-671 cell (at holding potential -100 mV); format: cell-based
[2] = biological target: T1, Acetylcholine receptor subunit delta; assay: Compound was evaluated for inhibitory activity against human embryonic muscle type Nicotinic acetylcholine receptor specifically delta-subunit expressed in TE-671 cell (at holding potential -50 mV); format: cell-based

T1 sequence (Q07001 whole entry): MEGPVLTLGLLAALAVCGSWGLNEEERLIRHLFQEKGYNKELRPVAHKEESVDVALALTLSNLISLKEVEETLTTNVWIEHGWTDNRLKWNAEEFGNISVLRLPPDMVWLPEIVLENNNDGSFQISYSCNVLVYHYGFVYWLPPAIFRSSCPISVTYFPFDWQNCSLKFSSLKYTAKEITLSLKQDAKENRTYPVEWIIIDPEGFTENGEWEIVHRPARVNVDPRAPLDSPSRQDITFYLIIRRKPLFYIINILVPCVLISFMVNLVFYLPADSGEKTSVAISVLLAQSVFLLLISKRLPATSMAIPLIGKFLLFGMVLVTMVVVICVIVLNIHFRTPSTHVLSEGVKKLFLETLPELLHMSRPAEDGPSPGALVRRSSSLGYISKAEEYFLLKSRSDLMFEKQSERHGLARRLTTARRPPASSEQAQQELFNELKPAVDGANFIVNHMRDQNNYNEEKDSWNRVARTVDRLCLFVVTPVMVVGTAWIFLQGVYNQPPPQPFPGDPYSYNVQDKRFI

Compound | IC50 [1] | IC50 [2]
CCCC(=O)N[C@@H](Cc1ccc(O)cc1)C(=O)NCCCCCCCCCCCCN | 0.93 µM | 1.53 µM
CCCC(=O)N[C@@H](Cc1ccc(O)cc1)C(=O)NCCCCCCCCCCCN | 0.46 µM | 0.58 µM
CCCC(=O)N[C@@H](Cc1ccc(O)cc1)C(=O)NCCCCCCCN | 5.44 µM | 10.5 µM
CCCC(=O)N[C@@H](Cc1ccc(O)cc1)C(=O)NCCCCCCCCN | 5.03 µM | 9.76 µM
CCCC(=O)N[C@@H](Cc1ccc(O)cc1)C(=O)NCCCCCCCCCCN | ~10 µM | 8.66 µM
CCCC(=O)N[C@@H](Cc1ccc(O)cc1)C(=O)NCCCCCCCCCN | 15.1 µM | 13.3 µM
CCCC(=O)N[C@@H](Cc1ccc(O)cc1)C(=O)NCCCNCCCCNCCCN [PHILANTHOTOXIN 343] | 75 µM | –
